How the values were obtained:
[1] = biological target: angiotensin II binding to rat adrenal receptor preparations; test: inhibition of 125I-angiotensin II binding to rat adrenal receptor preparations
[2] = system: 2 kidney, 1-clip Goldblatt hypertensive rat (RHR); test: blood pressure lowering in conscious 2 kidney, 1-clip Goldblatt (renal) hypertensive rats (RHR), AHP3; format: in vivo; conditions: 30 mg/kg ip, read-out: Max % decrease in blood pressure, 30 mg/kg ip in RHR
Procedure: Thus, for example, compounds of formula I when administered intraperitoneally or orally to 2 kidney, 1-clip Goldblatt (renal) hypertensive rats (See S Sen, et al., "Role of Renin-Angiotensin System in Chronic Renal Hypertensive Rats," Hypertension 1:427-434 (1979) and Clin. Soc. 57:53-62, 1979, "Antihypertensive Effect of Prolonged Blockade of Angiotensin Formation in Benign and Malignant, one-and two-kidney Goldblatt Hypertensive Rats".) at doses in the range of 1-100 mg/kg cause 10-80 mmHg drops in blood pressure. […] Angiotensin binding inhibition activity and blood pressure lowering activity in renal hypertensive rats of the optimally substituted examples of formula I are listed in Table 1. Blood pressure lowering activity in spontaneously hypertensive rats of optimally substituted examples of formula II are listed in Table 2.
[…] EVALUATION (AHP3)
A Method for the Direct Monitoring of Aortic Blood Pressure and Heart Rate from Conscious Rats
The continuous monitoring of pulsatile blood pressure (BP) from unrestrained conscious rats surgically equipped with polyethylene cannulas was accomplished by means of a computer assisted data capture scheme (CADCS). The basic elements of the methodology are the cannulation procedure and the CADCS.
Rats were anesthetized with Telazol (1:1 tiletamine HCl and zolazepam HCl); 20-40 mg/kg IM and the descending aorta exposed via a midline incision. Cannulas fabricated from polyethylene tubing were inserted into the aorta via an undersized puncture hole below the renal arteries. The puncture hole was made by a 23 G disposable needle with a section of the aorta clamped off above and below the puncture site. The cannulas, consisting of a PE100 (0.86 mm ID) body and a PE50 (0.58 mm ID) tip, were attached to a trocar, inserted through the psoas muscle, and passed subcutaneously along the midline of the back and externalized between the ears. The cannulas were anchored to the psoas muscle and between the scalulae (3-0 green braided suture). The midline incision was closed in two steps (muscle first, skin second) using continuous over-and-over sutures (4-0 chronic). Each rat was then given penicillin 30,000 units subcutaneously (Penicillin G Procaine Sterile Suspension).
The rats were fitted with a harness-springswivel assembly designed to protect the cannula and to provide the rat relative freedom of movement. The harnesses were fabricated from nylon hook and loop tape cemented to a metal plate to which spring wires (18-8 stainless steel), were attached to brass swivels. Each polyethylene cannula was channeled through a spring and connected through a swivel to a pressure transducer (Model P23Gb; Statham Instruments; Hato Rey, Puerto Rico) and an infusion pump (Sage model 234-7; Orion Research, Cambridge, Mass.) by means of PE100 tubing. While on test, each rat received a continuous slow infusion of heparinized saline solution (approximately 0.40 ml or 40 units of heparin per 24 hr period) to prevent clot formation. Additional "flushes" of the cannula with heparinized saline were carried out when the aortic pulse pressure (systolic minus diastolic) was less than 25 mm Hg.
The pulsatile blood pressure of each of 32 rats was monitored continuously by two signal conditioning units (Gould, Clev., Ohio). The signals from these units were monitored and digital data for mean, systolic, and diastolic blood pressures as well as for heart rate were calculated every 5 min by two in-laboratory computers (Hewlett Packard, Cupertino, Calif.). These in-laboratory computers have the capacity to store 32 days of this 5 min data. Communication with the mainframe research computer (IBM 3083) from the two inlaboratory computers allowed for data analysis and report generation. […]

| Structure (SMILES) | IC50 [1] | change in vivo at 30 mg/kg [2] |
| --- | --- | --- |
| O=C(O)C1Cc2c(ncn2CCC2CCCCC2)CN1C(=O)C(c1ccccc1)c1ccccc1 (centres unmarked) [Example 4, 1-(2-Cyclohexylethyl)-5-diphenylacetyl-4,5,6,7-tetrahydro-1H-imidazo[4,5-c]pyridine-6-carboxylic acid] | 0.24 µM | -13% |
| O=C(O)C1Cc2c(ncn2CCC23CC4CC(CC(C4)C2)C3)CN1C(=O)C(c1ccccc1)c1ccccc1 (centres unmarked) [Example 2, 1-(2-(1-Adamantyl)ethyl)-5-diphenylacetyl-4,5,6,7-tetrahydro-1H-imidazo[4,5-c]pyridine-6-carboxylic acid] | 0.1 µM | -26% |
| O=C(O)C1Cc2c(ncn2Cc2ccc(C(F)(F)F)cc2)CN1C(=O)C(c1ccccc1)c1ccccc1 (centres unmarked) [Example 21, 1-(4-Trifluoromethylphenyl)methyl-5-diphenylacetyl-4,5,6,7 tetrahydro-1H-imidazo[4,5-c]pyridine-6-carboxylic acid] | 0.19 µM | -18% |
| O=C(O)C1Cc2c(ncn2CCc2ccccc2)CN1C(=O)Cc1ccccc1 (centres unmarked) [Example 6, 1-(2-Phenylethyl)-5-phenylacetyl-4,5,6,7-tetrahydro-1H-imidazo[4,5-c]pyridine-6-carboxylic acid] | 2.4 µM | -16% |

— patent US4812462A, “4,5,6,7-tetrahydro-1H-imidazo[4,5-c]pyridine-6-carboxylic acid analogs having antihypertensive activity” (Warner-Lambert Company, priority 1986, dated 1989)
